Patent US20260174860A1, “HYBRID COMPOUNDS OF SCLAREOL AND DOXORUBICIN, THEIR SYNTHESIS AND APPLICATION” (INSTITUTE FOR BIOLOGICAL RESEARCH "SINISA STANKOVIC" - …, priority 2023, published 2026)

Assays:
[1] = Zetasizer measurement of size, polydispersity and zeta potential; assay type: physicochemical; conditions: 25° C., diluted 100 times with ultrapure water, mean of three
Method: The Malvern Zetasizer Nano ZS (Malvern Instruments, United Kingdom) was used to analyze the physico-chemical stability characteristics of conjugates. The measurement range was from 0.6 nm up to […]. The mean size of conjugates, the polydispersity index (PDI) and zeta potential were measured. All measurements were taken at a temperature of 25° C. and each sample was diluted 100 times with ultrapure water. The measurements were repeated three times, and the results were presented as the mean value. PDI is a parameter used to define the size range of particles. The term “polydispersity” (or “dispersity” as recommended by IUPAC) describes the degree of non-uniformity of a size distribution of particles. Zeta potential represents the surface charge of nanoparticles and indicates their long-term stability.

[2] = tested on: U87-TxR resistant human glioblastoma cell line; assay: MTT test of cell viability, 72 h treatment; assay type: cell-based; conditions: for IC50: MTT, 72 h, MDR line; for Relative Resistance: ratio IC50 U87-TxR / IC50 U87
Method: (§1) The MTT test was used to evaluate the effect of the compounds on cell viability. The test relies on the reduction of tetrazolium salt (MTT) to formazan, which is catalyzed by the mitochondrial enzyme succinate dehydrogenase. The activity of succinate dehydrogenase, which is indicative of mitochondrial respiration, is taken as an indirect measure of the metabolic activity of the cell, and thus its viability. The MTT-formazan produced is a purple-colored product, whose absorbance is measured at a wavelength of 570 nm. • a) To determine the inhibition of cell growth by SC, different cell lines were exposed to increasing concentrations of SC (5, 10, 25, 50, and 100 μM). The cells were seeded in 96-well microtiter plates at a density of 2,000 cells per well for NCI-H460, NCI-H460/R, DLD1 and DLD1-TxR, and 4,000 cells per well for MRC-5, U87, U87-TxR, and U251 in 100 μL of the appropriate medium. Control cells that received no treatment were also seeded at the same time. After 24 h for adaptation, the cells were treated with various concentrations of SC. After 72 h of treatment, 0.2 mg/ml MTT was added to each well in the appropriate cell culture medium. After 4 h of incubation at 37° C. with 5% CO2, the medium was removed, and 100 μL of DMSO were added to each well, to dissolve the formazan. The absorbance of the samples was measured at 570 nm using a Multiskan Sky Microplate spectrophotometer (ThermoFisher Scientific, USA). The results were analyzed using GraphPad Prism 8.0.2. software, and the IC50 values were determined by non-linear regression. • b) To test the interaction between SC and DOX in terms of cytotoxicity in different cell lines, cells were seeded in 96-well microtiter plates at a density of 2,000 cells per well for NCI-H460, NCI-H460/R, DLD1 and DLD1-TxR, and 4,000 cells per well for MRC-5, U87, U87-TxR, and U251 in 100 μl of the appropriate medium. SC (10 and 20 μM) was combined with increasing concentrations of DOX (20, 50, 100, 200, and 500 nM). The cells were treated with the simultaneous combinations for 72 h. After this period, 0.2 mg/ml MTT was added to each well, followed by 4 hours of incubation at 37° C. with 5% CO2. The medium was then removed, and DMSO was added to each well to dissolve the formazan.
(§2) The absorbance of the samples was measured at 570 nm using a Multiskan Sky Microplate spectrophotometer.
(§3) The analysis was carried out using GraphPad Prism software version 8.0.2 to determine the nature of the interaction, namely synergistic, antagonistic, or additive, between compounds. This was done using the computer software CalcuSyn, which is based on the combination index method. The method takes into account the concentration of compounds, the individual effect of each compound, as well as the effect of two compounds in combination. The values of the combination indices (CI) describe the nature of the interaction: Cl<0.9 indicates synergism, Cl>1.1 indicates antagonism, and Cl=0.9-1.1 indicates an additive effect. • c) To compare the resistance and selectivity profiles among SC, DOX, CON1, and CON2, human glioblastoma cell lines U87, U87-TxR, and MRC-5 were seeded at a density of 4,000 cells per well in 100 μL of the appropriate medium. In contrast, NCI-H460, NCI-H460/R, and MRC-5 were seeded at a density of 2,000 cells per well in 100 μL of the proper medium. The effect of SC derivatives LIG1 and LIG2 was also examined. The range of concentrations differed among the cell lines and the compounds. For LIG1 and LIG2, the range of concentrations for all cell lines was 50, 100, 200, 300, and 400 μM, while the same range was used for the MRC-5 in the case of SC, CON1, and CON2. DOX concentrations ranged 0.1, 0.25, 0.5, 1, and 2.5 μM for U87 and NCI-H460, and 0.25, 0.5, 1, 2.5, and 5 μM for U87-TxR, NCI-H460/R, and MRC-5. Five concentrations used for SC, CON1, and CON2 treatments varied in the range 1, 2.5, 5, 10, 25, 50, and 100 μM. The treatment lasted 72 h. […]

[3] = tested on: MRC-5 human lung fibroblast cell line; assay: MTT test of cell viability, 72 h treatment; assay type: cell-based
Method: as §1, §2, §3

[4] = tested on: NCI-H460/R resistant human non-small cell lung carcinoma cell line; assay: MTT test of cell viability, 72 h treatment; assay type: cell-based; conditions: for IC50: MTT, 72 h, MDR line; for Relative Resistance: ratio IC50 NCI-H460/R / IC50 NCI-H460
Method: as §1, §2, §3

[5] = tested on: NCI-H460 human non-small cell lung carcinoma cell line; assay: MTT test of cell viability, 72 h treatment; assay type: cell-based; conditions: for IC50: MTT, 72 h; for Selectivity Index: ratio IC50 MRC-5 (2,000 cells per well) / IC50 NCI-H460
Method: as §1
as §3, with “h. After the treatment period, 0.2 mg/ml MTT in the appropriate cell culture medium was added to each well.” for “h.”

[6] = tested on: U87 human glioblastoma cell line; assay: MTT test of cell viability, 72 h treatment; assay type: cell-based; conditions: for IC50: MTT, 72 h; for Selectivity Index: ratio IC50 MRC-5 (4,000 cells per well) / IC50 U87
Method: as §1
as §3, with “h. After the treatment period, 0.2 mg/ml MTT in the appropriate cell culture medium was added to each well.” for “h.”

[7] = Homo sapiens, MRC5, 72 h, 2,000 cells per well (non-small cell carcinoma experiments)
[8] = Homo sapiens, MRC5, 72 h, 4,000 cells per well (glioblastoma experiments)

IC50 ([2]; Homo sapiens, U87-TxR)	IC50 ([4]; Homo sapiens, NCI-H460)	IC50 ([5]; Homo sapiens, NCI-H460)	IC50 ([6]; Homo sapiens)	Compound	Z-Average [1]	IC50 [2]	Relative Resistance [2]	IC50 ([3]; 2,000 cells per well (non-small cell carcinoma experiments))	IC50 ([3]; 4,000 cells per well (glioblastoma experiments))	IC50 [4]	Relative Resistance [4]	IC50 [5]	Selectivity Index [5]	IC50 [6]	Selectivity Index [6]	IC50 [3, 7]	IC50 [3, 8]
–	–	–	–	N1-((2S,3S,4S,6R)-3-hydroxy-2-methyl-6-(((1S,3S)-3,5,12-trihydroxy-3-(2-hydroxyacetyl)-10-methoxy-6,11-dioxo-1,2,3,4,6,11-hexahydrotetracen-1-yl)oxy)tetrahydro-2H-pyran-4-yl)-N4-(6-((4-((R,E)-3-hydroxy-5-((1R,2R,4aS,8aS)-2-hydroxy-2,5,5,8a-tetramethyldecahydronaphthalen-1-yl)-3-methylpent-1-en-1-yl)benzyl)amino)hexyl) succinamide [CON2]	180 ± 14.7 nm·days	26.2 µM	4.2	131 µM	> 400 µM	83.3 µM	3.3	25.1 µM	5.2	6.2 µM	>64.5	–	–
61.7 µM	55.2 µM	41.7 µM	74.4 µM	CC1(C)CCC[C@]2(C)[C@@H](CC[C@@](C)(O)/C=C/c3ccc(CNCCCNC(=O)CCC(=O)O)cc3)[C@](C)(O)CC[C@@H]12 [LIG1, 4-((3-((4-((R,E)-3-hydroxy-5-((1R,2R,4aS,8aS)-2-hydroxy-2,5,5,8a-tetramethyldecahydronaphthalen-1-yl)-3-methylpent-1-en-1-yl)benzyl)amino)propyl)amino)-4-oxobutanoic acid]	–	–	0.8	–	–	–	1.3	–	9.4	–	3.2	393 µM	236 µM
273 µM	110 µM	99.6 µM	345 µM	CC1(C)CCC[C@]2(C)[C@@H](CC[C@@](C)(O)/C=C/c3ccc(CNCCCCCCNC(=O)CCC(=O)O)cc3)[C@](C)(O)CC[C@@H]12 [LIG2, 4-((6-((4-((R,E)-3-hydroxy-5-((1R,2R,4aS,8aS)-2-hydroxy-2,5,5,8a-tetramethyldecahydronaphthalen-1-yl)-3-methylpent-1-en-1-yl)benzyl)amino)hexyl)amino)-4-oxobutanoic acid]	–	–	0.8	–	–	–	1.1	–	6.1	–	>1.2	610 µM	> 400 µM
